# Tested on: Human keratinocytes
# Experiment: de novo IP3 synthesis in KHN cells (RIA)
# Type: cell-based
# Experimental: The IP3 produced by the cell is extracted with perchloric acid and assay is conducted by a RIA method based on competition for a specific IP3 binding protein between radioactive IP3 and cell extract IP3. The intracellular IP3 is assayed after stimulation with the extract of Euglena, vs.control. The positive control consists in Platelet-Activating Factor (PAF).
# Human keratinocytes were cultured and incubated to 90% confluence. The cells were incubated in the presence of extract of euglena at various concentrations or the control for 1 minute.
substance,measurement,setting,value
Platelet-Activating Factor [PAF],IP3,"positive control, mean of n = 3",17.48 pmol/mL
same,Variation of IP3,"positive control, relative to control",515
same,"IP3 production, result in words",vs control,stimulated IP3 production
